US10214531B2 (Institute for Drug Discovery, LLC, priority 2013, dated 2019)
Structures can show the parent of a compound that is named as a salt.

Target: recombinant human AMCase (Homo sapiens, UniProt Q9BZP6)
Test: Human AMCase Activity Assay
Assay type: biochemical
Conditions: recombinant hAMCase, 4-methylumbelliferyl chitobioside substrate, citrate buffer pH 5.2, 37° C., 60 minutes; read-out: Activity (IC50 value key)
Protocol: Human AMCase Activity Assay
The assay was run in the 96-well plate format, each reaction in the total volume of 100 μl. 4-Methylumbelliferyl B-D-N,N′ diacetylchitobioside hydrate was used as a substrate for the enzyme. Upon hydrolysis by AMCase, the substrate releases 4-methylumbelliferyl (4MU), when ionized in basic pH, emits fluorescence of 460 nm.
Briefly, 40 μl of a substrate was added to each well, followed by 10 μl of compound dilution and 50 μl of hAMCase recombinant enzyme solution. The reaction was carried out in citrate buffer, pH 5.2, in the dark, at 37° C. for 60 minutes with shaking.

Chain of recombinant human AMCase (Q9BZP6 22-476): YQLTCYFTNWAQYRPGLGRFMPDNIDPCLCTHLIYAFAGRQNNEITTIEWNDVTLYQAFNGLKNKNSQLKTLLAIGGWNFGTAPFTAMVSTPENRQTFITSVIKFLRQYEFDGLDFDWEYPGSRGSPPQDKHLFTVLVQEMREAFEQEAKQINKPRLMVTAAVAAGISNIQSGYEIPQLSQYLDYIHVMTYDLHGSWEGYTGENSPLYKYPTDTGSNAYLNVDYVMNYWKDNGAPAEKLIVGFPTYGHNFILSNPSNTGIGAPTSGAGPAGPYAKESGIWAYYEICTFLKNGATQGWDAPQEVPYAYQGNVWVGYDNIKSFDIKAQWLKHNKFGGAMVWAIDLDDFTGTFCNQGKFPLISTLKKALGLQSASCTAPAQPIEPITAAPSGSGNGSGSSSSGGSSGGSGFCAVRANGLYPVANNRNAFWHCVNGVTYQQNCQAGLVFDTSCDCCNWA

Row | Compound | IC50
1 | CC1CN(c2nc(N)n[nH]2)CCC1N(C)CCc1ccc(Br)cc1 (stereo not shown) [Example 230, 1-(3-amino-1H-1,2,4-triazol-5-yl)-N-(4-bromophenethyl)-N,3-dimethylpiperidin-4-amine dihydrochloride] | 0.1 to 1 µM
2 | CC(CN1CCN(c2nc(N)n[nH]2)CC1)Oc1ccc(Br)cc1 (stereo not shown) [Example 20-1, 5-(4-(2-(4-bromophenoxy)propyl)piperazin-1-yl)-1H-1,2,4-triazol-3-amine] | 10 to 100 µM
3 | Cc1ccccc1CCN(C)C1CCN(c2nc(N)n[nH]2)CC1 [Example 179, 1-(3-amino-1H-1,2,4-triazol-5-yl)-N-methyl-N-(2-methylphenethyl)piperidin-4-amine] | 10 to 100 µM
4 | Nc1n[nH]c(N2CCC(c3nc(-c4ccc5c(c4)OCO5)no3)CC2)n1 [Example 41, 5-(4-(3-(benzo[d][1,3]dioxol-5-yl)-1,2,4-oxadiazol-5-yl)piperidin-1-yl)-1H-1,2,4-triazol-3-amine] | > 100 µM
5 | Nc1n[nH]c(N2CCC(N(CCc3ccc(Cl)cc3)Cc3ccc(-c4ccccc4)cc3)CC2)n1 [Example 111, N-([1,1′-biphenyl]-4-ylmethyl)-1-(3-amino-1H-1,2,4-triazol-5-yl)-N-(4-chlorophenethyl) piperidin-4-amine] | < 0.1 µM
6 | CC(=O)NC(CC(=O)N1CCN(c2nc(N)n[nH]2)CC1)c1ccc(F)cc1 (stereo not shown) [Example 76, N-(3-(4-(3-amino-1H-1,2,4-triazol-5-yl)piperazin-1-yl)-1-(4-fluorophenyl)-3-oxopropyl)acetamide] | > 100 µM
7 | Nc1n[nH]c(N2CCC(CNC(=O)c3ccc(F)cc3F)CC2)n1 [Example 213, N-((1-(3-amino-1H-1,2,4-triazol-5-yl)piperidin-4-yl)methyl)-2,4-difluorobenzamide] | > 100 µM
8 | Nc1n[nH]c(N2CCC(NS(=O)(=O)Cc3ccc(F)cc3)CC2)n1 [Example 57, N-(1-(3-amino-1H-1,2,4-triazol-5-yl)piperidin-4-yl)-1-(4-fluorophenyl)methanesulfonamide] | 10 to 100 µM
9 | CN(CCc1ccccc1C(F)(F)F)C1CCN(c2nc(N)n[nH]2)CC1 [Example 169, 1-(3-amino-1H-1,2,4-triazol-5-yl)-N-methyl-N-(2-(trifluoromethyl)phenethyl)piperidin-4-amine] | 1 to 10 µM
10 | CC(Cc1ccc(Cl)cc1)NC1CCN(c2nc(N)n[nH]2)CC1 (stereo not shown) [Example 151, 1-(3-amino-1H-1,2,4-triazol-5-yl)-N-(1-(4-chlorophenyl)propan-2-yl)piperidin-4-amine dihydrochloride] | 1 to 10 µM
11 | Nc1n[nH]c(N2CCC(C(=O)NCc3ccc(Cl)c(Cl)c3)CC2)n1 [Example 17, 1-(3-amino-1H-1,2,4-triazol-5-yl)-N-(3,4-dichlorobenzyl)piperidine-4-carboxamide] | > 100 µM
12 | Nc1n[nH]c(N2CCC(N(CCc3ccc(Br)cc3)Cc3cccc4ccccc34)CC2)n1 [Example 129, 1-(3-amino-1H-1,2,4-triazol-5-yl)-N-(4-bromophenethyl)-N-(naphthalen-1-ylmethyl)piperidin-4-amine] | < 0.1 µM
13 | Nc1n[nH]c(N2CCC(NCCc3ccc(Cl)cc3)C(CCCO)C2)n1 (stereo not shown) [Example 251, 3-(1-(3-amino-1H-1,2,4-triazol-5-yl)-4-((4-chlorophenethyl)amino)piperidin-3-yl)propan-1-ol dihydrochloride] | < 0.1 µM
14 | Cc1cccc(Cl)c1CN(CCc1ccc(Cl)cc1)C1CCN(c2nc(N)n[nH]2)CC1 [Example 161, 1-(3-amino-1H-1,2,4-triazol-5-yI)-N-(2-chloro-6-methylbenzyl)-N-(4-chlorophenethyl)piperidin-4-amine] | < 0.1 µM
15 | Nc1n[nH]c(N2CCC(N(CCc3ccc(Cl)cc3)[C@@H](CO)c3ccccc3)CC2)n1 [Example 107, (R)-2-((1-(3-amino-1H-1,2,4-triazol-5-yl)piperidin-4-yl)(4-chlorophenethyl)amino)-2-phenylethan-1-ol] | 0.1 to 1 µM
16 | C[C@@H](Oc1ccc(Br)cc1)C(=O)N1CCN(c2nc(N)n[nH]2)CC1 [Example 6, (R)-1-(4-(3-amino-1H-1,2,4-triazol-5-yl)piperazin-1-yl)-2-(4-bromophenoxy)propan-1-one] | > 100 µM
17 | Cc1ccccc1OC(C)C(=O)N1CCN(c2nc(N)n[nH]2)CC1 (stereo not shown) [Example 32, 1-(4-(3-amino-1H-1,2,4-triazol-5-yl)piperazin-1-yl)-2-(o-tolyloxy)propan-1-one] | > 100 µM
18 | CN(CCc1ccc(Cl)cc1)C1CCN(c2nc(N)n[nH]2)CC1F (stereo not shown) [Example 249, 1-(3-amino-1H-1,2,4-triazol-5-yl)-N-(4-chlorophenethyl)-3-fluoro-N-methylpiperidin-4-amine] | 1 to 10 µM
19 | Nc1n[nH]c(N2CCC(N(CCc3ccc(Br)cc3)Cc3cccc4ccncc34)CC2)n1 [Example 105, 1-(3-amino-1H-1,2,4-triazol-5-yl)-N-(4-bromophenethyl)-N-(isoquinolin-8-ylmethyl) piperidin-4-amine] | < 0.1 µM

Row | Compound | IC50
20 | Nc1n[nH]c(N2CCC(N(CCc3ccc(Br)cc3)Cc3ccccc3Cl)CC2)n1 [Example 98, 1-(3-amino-1H-1,2,4-triazol-5-yl)-N-(4-bromophenethyl)-N-(2-chlorobenzyl) piperidin-4-amine] | < 0.1 µM
21 | CC(C)(Oc1ccc(Cl)cc1)C(=O)N1CCN(c2nc(N)n[nH]2)CC1 [Example 258, 1-(4-(3-amino-1H-1,2,4-triazol-5-yl)piperazin-1-yl)-2-(4-chlorophenoxy)-2-methylpropan-1-one] | > 100 µM
22 | Nc1n[nH]c(N2CCC(N(CCc3ccc(Cl)cc3)Cc3ccccc3F)CC2)n1 [Example 137, 1-(3-amino-1H-1,2,4-triazol-5-yl)-N-(4-chlorophenethyl)-N-(2-fluorobenzyl)piperidin-4-amine dihydrochloride] | < 0.1 µM
23 | Nc1n[nH]c(N2CCN(C(=O)CC(N)c3ccccc3F)CC2)n1 (stereo not shown) [Example 214, 3-amino-1-(4-(3-amino-1H-1,2,4-triazol-5-yl)piperazin-1-yl)-3-(2-fluorophenyl)propan-1-one dihydrochloride] | > 100 µM
24 | Nc1n[nH]c(N2CCC(NS(=O)(=O)Cc3ccc(Cl)c(Cl)c3)CC2)n1 [Example 15, N-(1-(3-amino-1H-1,2,4-triazol-5-yl)piperidin-4-yl)-1-(3,4-dichlorophenyl)methanesulfonamide] | 10 to 100 µM
25 | Nc1n[nH]c(N2CCN(C(=O)COc3ccc(Cl)cc3)CC2)n1 [Example 24, 1-(4-(3-amino-1H-1,2,4-triazol-5-yl)piperazin-1-yl)-2-(4-chlorophenoxy)-ethanone] | > 100 µM
26 | Nc1n[nH]c(N2CCC(C(=O)NCc3ccc(OC(F)(F)F)cc3)CC2)n1 [Example 205, 1-(3-amino-1H-1,2,4-triazol-5-yl)-N-(4-(trifluoromethoxy)benzyl)piperidine-4-carboxamide] | > 100 µM
27 | Nc1n[nH]c(N2CCN(C(=O)[C@@H](N)Cc3ccccc3Cl)CC2)n1 [Example 75-2, (S)-2-amino-1-(4-(3-amino-1H-1,2,4-triazol-5-yl)piperazin-1-yl)-3-(2-chlorophenyl)propan-1-one dihydrochloride] | > 100 µM
28 | Nc1nc(N2CCC(N(CCc3ccc(Cl)cc3)Cc3cccc(Cl)c3)CC2)n[nH]1 [Example 110, 1-(3-amino-1H-1,2,4-triazol-5-yl)-N-(3-chlorobenzyl)-N-(4-chlorophenethyl) piperidin-4-amine dihydrochloride] | < 0.1 µM
29 | Nc1n[nH]c(N2CCC(NC(=O)Nc3ccc(F)c(F)c3)CC2)n1 [Example 68, 1-(1-(3-amino-1H-1,2,4-triazol-5-yl)piperidin-4-yl)-3-(3,4-difluorophenyl)urea] | > 100 µM
30 | Nc1n[nH]c(N2CCC(CNC(=O)c3cc(Br)cc(Br)c3)CC2)n1 [Example 209, N-((1-(3-amino-1H-1,2,4-triazol-5-yl)piperidin-4-yl)methyl)-3,5-dibromobenzamide] | > 100 µM
31 | COc1ccc(CN(CCc2ccc(Cl)cc2)C2CCN(c3nc(N)n[nH]3)CC2)cc1 [Example 152, 1-(3-amino-1H-1,2,4-triazol-5-yl)-N-(4-chlorophenethyl)-N-(4-methoxybenzyl)piperidin-4-amine] | < 0.1 µM
32 | C[C@H](Oc1ccc(Br)cc1)C(=O)N1CCN(c2nc(N)n[nH]2)CC1 [Example 7, (S)-1-(4-(3-amino-1H-1,2,4-triazol-5-yl)piperazin-1-yl)-2-(4-bromophenoxy)-propan-1-one] | > 100 µM
33 | Nc1n[nH]c(N2CCC(N(CCc3ccc(Cl)cc3)Cc3ccc(-c4ccn[nH]4)cc3)CC2)n1 [Example 115, N-(4-(1H-pyrazol-5-yl)benzyl)-1-(3-amino-1H-1,2,4-triazol-5-yl)-N-(4-chlorophenethyl) piperidin-4-amine dihydrochloride] | < 0.1 µM
34 | Nc1n[nH]c(N2CCC(C(=O)NCc3ccc(Cl)cc3)CC2)n1 [Example 52, 1-(3-amino-1H-1,2,4-triazol-5-yl)-N-(4-chlorobenzyl)piperidine-4-carboxamide] | > 100 µM
35 | CN(CCc1ccc(Cl)cc1)C1(CCCO)CCN(c2nc(N)n[nH]2)CC1 [Example 245, 3-(1-(3-amino-1H-1,2,4-triazol-5-yl)-4-((4-chlorophenethyl)(methyl)amino)piperidin-4-yl)propan-1-ol] | 1 to 10 µM
36 | CCN(C1CCN(c2nc(N)n[nH]2)CC1)S(=O)(=O)Cc1cccc(Cl)c1 [Example 238, N-(1-(3-amino-1H-1,2,4-triazol-5-yl)piperidin-4-yl)-1-(3-chlorophenyl)-N-ethylmethanesulfonamide] | 0.1 to 1 µM
37 | Nc1n[nH]c(N2CCN(CCCc3ccc(Br)cc3)C(CCCO)C2)n1 (stereo not shown) [Example 225, 3-(4-(3-amino-1H-1,2,4-triazol-5-yl)-1-(3-(4-bromophenyl)propyl)piperazin-2-yl)propan-1-ol] | 1 to 10 µM
